Experimental data published in patent US12162864B2, “Condensed-cyclic compound” (Takeda Pharmaceutical Company Limited, priority 2018, dated 2024).

Key:
MDR1 = molecular target: T1, MDR1 (Homo sapiens, UniProt P08183); assay: MDR1 membrane permeability test; format: in vitro ADME; conditions: pH 7.4, human MDR1-expressing LLC-PK1 cells, 10 μmol/L test compound, read-out: Efflux ratio (ER)
T1 construct: expressed in transfected cells
Method: MDR1 Membrane Permeability Test
When MDR1 is expressed in excess in LLC-PK1 cell, which is a polar cell, MDR1 is localized in apical membrane (A), thus promoting transcellular transport from the basement membrane side (B) toward direction A. When a ratio to the transcellular transport in the opposite direction is taken and a ratio to a control cell in which a mock vector has been introduced is further taken, an efflux ratio of MDR1 to simple diffusion (corrected efflux ratio) is calculated. Similarly, when a brain/plasma concentration ratio in Mdr1(−/−) mouse is divided by a brain/plasma concentration ratio in wild-type mouse, an efflux ratio of Mdr1 to simple diffusion in blood-brain barrier (BBB) (Kp, brain ratio, higher value means lower central nervous system permeability) is calculated. Adachi Y. et al. (Reference 1) has reported a positive correlation between corrected efflux ratio and Kp, brain ratio (FIG. 5(C)), and efflux ratio in MDR1 expressing cell and Kp, brain ratio (FIG. 5(B)).
To confirm the central nervous system permeability of the compounds of the present invention, a MDR1 membrane permeability test was performed by the following method.
Digoxin and lucifer yellow (LY) were purchased from Sigma-Aldrich™, Diclofenac, colchicine and alprenolol were purchased from Wako Pure Chemical Industries, Ltd., and other reagents used were commercially available products of special grade.
Human MDR1-expressing LLC-PK1 cells were cultured according to the report of Takeuchi et al. (Reference 2). Human MDR1-expressing LLC-PK1 cells were cultured in 10% fetal bovine serum (Invitrogen™), 500 μg/ml G418 (Invitrogen™), 150 ng/ml colchicine-containing M199 medium (Invitrogen™) under 5% CO2 conditions at 37° C.
Transcellular transport was performed according to the report of Sugimoto et al. (Reference 3). The cells were cultured for 3 days on HTS Transwell™ (registered trademark) 96 well permeable support (pore size 0.4 μm, 0.143 cm^2 surface area, Corning Life Sciences) having polyethylene terephthalate membrane on which the cells had been seeded at 3.45×10^4 cells/well. After preincubation in M199 medium (containing 10 mmol/L HEPES, 1% BSA, pH 7.4) for 30 min, a drug solution (10 μmol/L digoxin, 200 μmol/L LY, 10 μmol/L test compound) dissolved in M199 medium was added to the apical side or basolateral side of the Transwell™ by 75 or 250 μL each and the cells were cultured under 5% CO2 conditions at 37° C. After 1 hr, the sample was collected from the side opposite to the side where the drug solution was added, and the concentration of the test compound was measured by LC-MS/MS. As an internal standard substance, 100 ng/mL alprenolol and diclofenac were used. The analysis conditions were as follows. • LC: UFLC LC-20 (Shimadzu™) • MS/MS: API4000 (AB Sciex™ Instruments) • LC condition: gradient method
• Column: Unison UK-C18 HT (3.0 μm, 2.0×20 mm) • Column temperature: 50° C. • Flow rate: 0.7 mL/min (for 1.5 min run), 1.0 mL/min (for 1.0 min run) • Mobile phase A: 50 mM CH3COONH4:MeCN:water=1:1:8 • Mobile phase B: 50 mM CH3COONH4:MeCN=1:9 • Injection volume: 1-20 μL
LY was measured by a fluorescence plate reader (Fluoroskan Ascent FL).
Papp, A to B and Papp, B to A (apparent permeability) were calculated from the formula (1), and the efflux ratio (ER) was calculated from the formula (2).
[formula] • Amount: amount of transported digoxin/well • Area: surface area of cell monolayer (0.143 cm^2) • C0: concentration of drug solution added • Time: incubation time

Male beagle dogs = assay: Experiment on gastrointestinal motility in dogs; format: in vivo, dog; conditions: 4 or 8 hr after administration, compared with solvent administration group
Method: Experiment on Gastrointestinal Motility in Dogs
Male beagle dogs each equipped with four pressure transducers (one in the ileum and three in the large intestine) were used after an acclimation period for 15 days. The compound of Example 13 (0.03 mg/kg) or the compound of Example 60 (1 mg/kg) was suspended in 0.5% methylcellulose solution and orally administered at a volume of 10 mL/kg. Only 0.5% methylcellulose was administered to a solvent administration group.
HAPC (abbreviation for high amplitude propagated contractions which mean strong contractions propagated from the oral side to the anal side of the large intestine during defecation. Intestinal contraction pattern observed during normal defecation.) at 4 or 8 hr after administration was counted using a telemeter for gastrointestinal motility (GTS-850, STARMEDICAL).

T1 sequence (P08183 whole entry): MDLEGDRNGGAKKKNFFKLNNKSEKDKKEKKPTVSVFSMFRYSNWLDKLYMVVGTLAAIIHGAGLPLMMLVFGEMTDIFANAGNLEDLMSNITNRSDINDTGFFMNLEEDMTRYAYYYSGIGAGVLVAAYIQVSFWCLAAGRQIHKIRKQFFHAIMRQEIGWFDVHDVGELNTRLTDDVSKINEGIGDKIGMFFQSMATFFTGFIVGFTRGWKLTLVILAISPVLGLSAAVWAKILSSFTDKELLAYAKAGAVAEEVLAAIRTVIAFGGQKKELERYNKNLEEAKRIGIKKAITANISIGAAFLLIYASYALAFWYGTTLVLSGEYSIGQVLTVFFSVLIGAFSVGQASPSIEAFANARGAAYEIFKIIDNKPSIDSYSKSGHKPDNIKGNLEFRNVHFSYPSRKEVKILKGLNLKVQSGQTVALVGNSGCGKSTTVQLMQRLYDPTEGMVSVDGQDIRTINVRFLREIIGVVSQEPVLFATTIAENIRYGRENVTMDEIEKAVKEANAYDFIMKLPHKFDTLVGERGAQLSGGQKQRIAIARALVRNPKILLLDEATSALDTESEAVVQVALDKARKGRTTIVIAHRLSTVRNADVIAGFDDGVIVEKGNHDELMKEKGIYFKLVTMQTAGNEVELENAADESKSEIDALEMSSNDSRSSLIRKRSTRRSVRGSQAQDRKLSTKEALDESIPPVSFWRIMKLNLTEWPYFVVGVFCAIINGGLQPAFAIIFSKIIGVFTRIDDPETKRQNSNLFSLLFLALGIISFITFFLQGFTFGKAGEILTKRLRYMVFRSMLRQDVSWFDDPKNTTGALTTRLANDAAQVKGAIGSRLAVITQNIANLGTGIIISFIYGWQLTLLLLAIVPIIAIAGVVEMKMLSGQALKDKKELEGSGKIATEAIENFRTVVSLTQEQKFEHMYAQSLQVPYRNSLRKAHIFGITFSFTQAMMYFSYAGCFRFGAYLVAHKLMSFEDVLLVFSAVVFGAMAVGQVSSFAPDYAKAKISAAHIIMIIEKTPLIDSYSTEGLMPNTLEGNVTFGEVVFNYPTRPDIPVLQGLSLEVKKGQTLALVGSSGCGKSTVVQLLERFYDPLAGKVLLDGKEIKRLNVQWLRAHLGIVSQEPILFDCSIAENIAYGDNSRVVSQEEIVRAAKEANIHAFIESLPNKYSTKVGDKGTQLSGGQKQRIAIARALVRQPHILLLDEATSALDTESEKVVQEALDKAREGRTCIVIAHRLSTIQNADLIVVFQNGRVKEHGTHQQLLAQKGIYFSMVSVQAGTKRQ

SMILES | efflux ratio at 1 h, 10 μmol/L (MDR1) | number of HAPCs in the intestinal tract (Male beagle dogs; oral 0.03 mg/kg) | number of HAPCs in the intestinal tract (Male beagle dogs; oral 1 mg/kg)
CNC(=O)c1ccc(Cc2cc(C(=O)N[C@H]3CCOC[C@@H]3O)c(OC)c3c2OCC3)cc1F [Example 31, 1,5-anhydro-2,3-dideoxy-3-(((7-(3-fluoro-4-(methylcarbamoyl)benzyl)-4-methoxy-2,3-dihydro-1-benzofuran-5-yl)carbonyl)amino)-L-threo-pentitol] | 28 |  | 
Cn1cnc(-c2ccc(Cc3cc(C(=O)N[C@H]4CCOC[C@@H]4O)c(F)c4c3OCC4)cc2)c1 [Example 5, 1,5-anhydro-2,3-dideoxy-3-(((4-fluoro-7-(4-(1-methyl-1H-imidazol-4-yl)benzyl)-2,3-dihydro-1-benzofuran-5-yl)carbonyl)amino)-L-threo-pentitol] | 7.3 |  | 
CCOCCNC(=O)c1ccc(Cc2cc(C(=O)N[C@H]3CCOC[C@@H]3O)c(F)c3c2OCC3)cc1F [Example 14, 1,5-anhydro-2,3-dideoxy-3-(((7-(4-((2-ethoxyethyl)carbamoyl)-3-fluorobenzyl)-4-fluoro-2,3-dihydro-1-benzofuran-5-yl)carbonyl)amino)-L-threo-pentitol] | 9.3 |  | 
COCCNC(=O)c1ccc(Cc2cc(C(=O)N[C@H]3CCOC[C@@H]3O)c(F)c3c2OCC3)cc1F [Example 13, 1,5-anhydro-2,3-dideoxy-3-(((4-fluoro-7-(3-fluoro-4-((2-methoxyethyl)carbamoyl)benzyl)-2,3-dihydro-1-benzofuran-5-yl)carbonyl)amino)-L-threo-pentitol] | 10 | an increase in the number of HAPCs in the intestinal tract was observed | 
Cn1cc(-c2ccc(Cc3cc(C(=O)N[C@H]4CCOC[C@@H]4O)c(F)c4c3OCC4)cn2)cn1 [Example 6, 1,5-anhydro-2,3-dideoxy-3-(((4-fluoro-7-((6-(1-methyl-1H-pyrazol-4-yl)pyridin-3-yl)methyl)-2,3-dihydro-1-benzofuran-5-yl)carbonyl)amino)-L-threo-pentitol] | 18 |  | 
COCCCNC(=O)c1ccc(Cc2cc(C(=O)N[C@H]3CCOC[C@@H]3O)c(OC)c3c2CCC3)cc1F [Example 60, 1,5-anhydro-2,3-dideoxy-3-(((7-(3-fluoro-4-((3-methoxypropyl)carbamoyl)benzyl)-4-methoxy-2,3-dihydro-1H-inden-5-yl)carbonyl)amino)-L-threo-pentitol] | 15 |  | an increase in the number of HAPCs in the intestinal tract was observed
